Results published in the NIST ThermoML archive (doi:10.1016/j.jct.2005.07.019).

Test: mn = molality of the nth substance listed, in mol/kg
Conditions: 350 kPa, Liquid, Extra sensitive DSC

N[C@@H](CO)C(=O)O [L-serine] + O
apparent molar heat capacity [J/K/mol]
Conditions | m1 = 0.015 | m1 = 0.0302 | m1 = 0.05 | m1 = 0.08 | m1 = 0.1249 | m1 = 0.2501 | m1 = 0.3717 | m1 = 0.7002 | m1 = 1.001
278.15 K | 58.9 | 59.2 | 58.9 | 60.7 | 62.4 | 67.93 | 72.64 | 84.65 | 94.04
283.15 K | 78.9 | 79.3 | 79.2 | 80.6 | 82.1 | 86.36 | 90.3 | 99.99 | 108.37
288.15 K | 94.8 | 95.4 | 95.2 | 96.5 | 97.7 | 101.28 | 104.58 | 112.69 | 120.13
293.15 K | 108 | 108.7 | 108.4 | 109.5 | 110.5 | 113.56 | 116.4 | 123.33 | 129.97
298.15 K | 118.7 | 119.4 | 119.2 | 120.1 | 120.9 | 123.63 | 126.11 | 132.2 | 138.25
303.15 K | 127.9 | 128.6 | 128.4 | 129.2 | 129.9 | 132.24 | 134.43 | 139.82 | 145.45
308.15 K | 135.6 | 136.4 | 136.2 | 136.9 | 137.5 | 139.63 | 141.58 | 146.36 | 151.62
313.15 K | 142.6 | 143.1 | 142.9 | 143.5 | 144.1 | 145.98 | 147.77 | 152.15 | 157.1
318.15 K | 148.7 | 148.9 | 148.6 | 149.2 | 149.7 | 151.4 | 153.04 | 157.06 | 161.73
323.15 K | 153.9 | 154.1 | 153.8 | 154.2 | 154.6 | 156.2 | 157.74 | 161.47 | 165.95
328.15 K | 158.6 | 158.6 | 158.3 | 158.7 | 159 | 160.4 | 161.86 | 165.32 | 169.63
333.15 K | 163.4 | 163.1 | 162.2 | 162.6 | 162.9 | 164.2 | 165.59 | 168.83 | 173.01
338.15 K | 167.3 | 166.8 | 165.8 | 166.2 | 166.4 | 167.6 | 168.91 | 172 | 176.07
343.15 K | 170.4 | 169.9 | 168.8 | 169 | 169.3 | 170.5 | 171.75 | 174.71 | 178.65
348.15 K | 173.7 | 172.4 | 171.4 | 171.6 | 171.9 | 173.1 | 174.28 | 177.14 | 181.02
353.15 K | 176 | 174.9 | 173.8 | 174 | 174.3 | 175.4 | 176.6 | 179.33 | 183.15
358.15 K | 178 | 176.9 | 176 | 176 | 176.4 | 177.4 | 178.6 | 181.28 | 185.03
363.15 K | 179 | 178.4 | 177.6 | 177.7 | 178.1 | 179.1 | 180.3 | 182.94 | 186.63
368.15 K | 181 | 179.7 | 178.9 | 179 | 179.6 | 180.6 | 181.8 | 184.38 | 188
373.15 K | 181 | 180.9 | 180.2 | 180.1 | 180.7 | 181.8 | 183 | 185.63 | 189.22
378.15 K | 181 | 181.7 | 181 | 180.7 | 181.7 | 182.9 | 183.9 | 186.55 | 190.12
383.15 K | 182 | 182.2 | 181.8 | 181.3 | 182.4 | 183.8 | 184.8 | 187.46 | 190.98
388.15 K | 183 | 182.6 | 182.7 | 181.4 | 183 | 184.4 | 185.4 | 188.07 | 191.6
393.15 K | 183 | 182.6 | 183.3 | 181.2 | 183.4 | 184.8 | 185.7 | 188.6 | 192.04
